# Assay results as given in patent US10227345B2, “Compounds and methods for inhibiting fascin” (Cornell University, priority 2014, dated 2019).
# Molecular target: T1, human fascin 1 (Homo sapiens, UniProt Q16658)
# T1 construct: GST (N, cleaved yes); made in house; host or cells: Escherichia coli BL21/DE3 (pGEX4T-fascin 1 plasmid)
# Assay: Fascin inhibition (actin bundling) assay, image-based
# Assay type: biochemical
# Details: in the presence of 50 μm of the compound relative to bundle activity when the compound was not present; read-out: Inhibition (percentage reduction of bundle activity)
# Method: Recombinant human fascin 1 was expressed as a GST fusion protein in BL21 Escherichia coli. One liter of 2YT medium with ampicillin was inoculated overnight with 3 mL of BL21/DE3 culture transformed with pGEX4T-fascin 1 plasmid and grown at 37° C. until attenuance at 600 nm (D600) reached about 0.8. The culture was then transferred to 18° C. and induced by the addition of 0.1 mM isopropyl β-d-thiogalactoside (IPTG) for 12 h. Bacteria were harvested by centrifugation at 5,000 r.p.m. for 10 min. The pellets were suspended in 30 mL of PBS supplemented with 0.2 mM PMSF, 1 mM DTT, 1% (v/v) Triton X-100 and 1 mM EDTA. After sonication, the suspension was centrifuged at 15,000 r.p.m. for 30 min to remove the cell debris. The supernatant was then incubated for 2 h with 4 mL of glutathione beads (Sigma) at 4° C. After extensive washing with PBS, the beads were resuspended in 10 mL of thrombin cleavage buffer (20 mM Tris-HCl pH 8.0, 150 mM NaCl, 2 mM CaCl2, 1 mM DTT). Fascin was released from the beads by incubation overnight with 40-100 U of thrombin at 4° C. After centrifugation, 0.2 mM PMSF was added to the supernatant to inactivate the remnant thrombin activity. The fascin protein was further concentrated with a Centricon® (Boca Raton, Fla.) filter to about 50 mg/mL.
# Representative compounds described herein were tested for fascin inhibition activity. Purified fascin protein (15 μL of 0.5 μM) in buffer (100 mM KCl, 20 mM Tris/HCl, pH 7.5, 2 mM MgCl2) was added into each well of a clear 384-well flat-bottom plate (Corning) using Thermo Multidrop Combi (Fisher). Compound solutions (5 mM stock, 180 nL) were pin transferred from stock 384-well plates into the 384-well assay plates and incubated for 30 min. Then 15 μL of 0.5 μM polymerized actin (in 100 mM KCl, 20 mM Tris/HCl, pH 7.5, 2 mM MgCl2, 1 mM DTT, 1 mM ATP) (Cytoskeleton Inc.) was added, resulting in 30 μM final concentration for chemical compounds. […] Mixed solution (25 μL) was then transferred to one well in a black 384-well plate coated with poly-D-lysine, and stained actin bundles or F-actin would stick onto the poly-D-lysine plates. After the plates were thoroughly washed with 1×PBS for 3 times, the plate was imaged using an ImageXpress Micro High Content Screening System (Molecular devices). The images were processed and analyzed using MetaMorph software. The raw image data for each well was background-corrected by subtraction of the median intensities across all wells on the plate. The background-corrected data was used to compute the bundle length for each well. The negative control wells were employed for quality control: multiple DMSO-only control wells (16 wells/plate) were present on each assay plate.
row,SMILES,inhibition at 50 µM [%]
1,"Cc1ccc(Cn2nc(NC(=O)c3ccno3)c3ccccc32)cc1 [Compound 80, N-(1-(4-methylbenzyl)-1H-indazol-3-yl)isoxazole-5-carboxamide]",50
2,"O=C(Nc1nn(Cc2ccc(C(F)(F)F)cc2)c2ccccc12)c1cccc(Cl)c1 [Compound 7, 3-chloro-N-(1-(4-(trifluoromethyl)benzyl)-1H-indazol-3-yl)benzamide]",10
3,"O=C(Nc1nn(Cc2ccc(C(F)(F)F)cc2)c2ccccc12)c1cscc1Br [Compound 42, 4-bromo-N-(1-(4-(trifluoromethyl)benzyl)-1H-indazol-3-yl)thiophene-3-carboxamide]",< 10
4,"N#Cc1ccc(Cn2nc(N)c3ccccc32)cc1 [Compound 84, 4-((3-amino-1H-indazol-1-yl)methyl)benzonitrile]",< 10
5,"Cc1ccsc1C(=O)Nc1nn(Cc2ccc(C(F)(F)F)cc2)c2ccccc12 [Compound 23, 3-methyl-N-(1-(4-(trifluoromethyl)benzyl)-1H-indazol-3-yl)thiophene-2-carboxamide]",< 10
6,"O=C(Nc1nn(Cc2ccc(C(F)(F)F)cc2)c2ccccc12)c1csc(Cl)n1 [Compound 24, 2-chloro-N-(1-(4-(trifluoromethyl)benzyl)-1H-indazol-3-yl)thiazole-4-carboxamide]",< 10
7,"Cc1ccc(Cn2nc(NC(=O)c3scnc3C)c3ccccc32)cc1 [Compound 82, 4-methyl-N-(1-(4-methylbenzyl)-1H-indazol-3-yl)thiazole-5-carboxamide]",< 10
8,"O=C(Nc1nn(Cc2ccccc2C(F)(F)F)c2ccccc12)c1ccoc1 [Compound 57, N-(1-(2-(trifluoromethyl)benzyl)-1H-indazol-3-yl)furan-3-carboxamide]",< 10
9,"O=C(Nc1nn(Cc2ccc(C(F)(F)F)cc2)c2ccccc12)c1ccccc1Br [Compound 46, 2-bromo-N-(1-(4-(trifluoromethyl)benzyl)-1H-indazol-3-yl)benzamide]",< 10
10,"O=C(Nc1nn(Cc2ccc(C(F)(F)F)cc2)c2ccccc12)c1cnccn1 [Compound 53, N-(1-(4-(trifluoromethyl)benzyl)-1H-indazol-3-yl)pyrazine-2-carboxamide]",< 10
11,"N#Cc1ccc(Cn2nc(NC(=O)c3ccno3)c3ccccc32)cc1 [Compound 87, N-(1-(4-cyanobenzyl)-1H-indazol-3-yl)isoxazole-5-carboxamide]",< 10
12,"Cc1ncsc1C(=O)Nc1nn(Cc2ccc(F)cc2)c2ccccc12 [Compound 75, N-(1-(4-fluorobenzyl)-1H-indazol-3-yl)-4-methylthiazole-5-carboxamide]",< 10
13,"COc1cscc1C(=O)Nc1nn(Cc2ccc(C(F)(F)F)cc2)c2ccccc12 [Compound 51, 4-methoxy-N-(1-(4-(trifluoromethyl)benzyl)-1H-indazol-3-yl)thiophene-3-carboxamide]",< 10
14,"FC(F)(F)c1ccc(CNc2nn(Cc3ccc(C(F)(F)F)cc3)c3ccccc23)cc1 [Compound 22, N,1-bis(4-(trifluoromethyl)benzyl)-1H-indazol-3-amine]",< 10
15,"Cc1cc[nH]c1C(=O)Nc1nn(Cc2ccc(C(F)(F)F)cc2)c2ccccc12 [Compound 27, 3-methyl-N-(1-(4-(trifluoromethyl)benzyl)-1H-indazol-3-yl)-1H-pyrrole-2-carboxamide]",< 10
16,"Cc1cccc(C(=O)Nc2nn(Cc3ccc(C(F)(F)F)cc3)c3ccccc23)c1 [Compound 17, 3-methyl-N-(1-(4-(trifluoromethyl)benzyl)-1H-indazol-3-yl)benzamide]",< 10
17,"O=C(Nc1nn(Cc2ccc(C(F)(F)F)cc2)c2ccccc12)c1ccc(F)c(F)c1 [Compound 19, 3,4-difluoro-N-(1-(4-(trifluoromethyl)benzyl)-1H-indazol-3-yl)benzamide]",< 10
18,"N#Cc1ccc(Cn2nc(NC(=O)c3cccnn3)c3ccccc32)cc1 [Compound 90, N-(1-(4-cyanobenzyl)-1H-indazol-3-yl)pyridazine-3-carboxamide]",< 10
19,"Cc1ccc(Cn2nc(NC(=O)c3ccoc3C)c3ccccc32)cc1 [Compound 81, 2-methyl-N-(1-(4-methylbenzyl)-1H-indazol-3-yl)furan-3-carboxamide]",< 10
20,"O=C(Nc1nn(Cc2ccc(C(F)(F)F)cc2)c2ccccc12)c1ccccc1OC(F)F [Compound 47, 2-(difluoromethoxy)-N-(1-(4-(trifluoromethyl)benzyl)-1H-indazol-3-yl)benzamide]",< 10
21,"O=C(Nc1nn(Cc2ccc(C(F)(F)F)cc2)c2ccccc12)c1ccccc1OC(F)(F)F [Compound 52, 2-(trifluoromethoxy)-N-(1-(4-(trifluoromethyl)benzyl)-1H-indazol-3-yl)benzamide]",< 10

# Further lines, results first:
row,inhibition at 50 µM [%],SMILES
1,10,"O=C(Nc1nn(Cc2ccc(C(F)(F)F)cc2)c2cncc(Cl)c12)c1ccoc1 [Compound 140, N-(4-chloro-1-(4-(trifluoromethyl)benzyl)-1H-pyrazolo[3,4-c]pyridin-3-yl)furan-3-carboxamide]"
2,10,"FC(F)(F)c1ccc(Cn2nc(-c3ccoc3)c3ccccc32)cc1 [Compound 147, 3-(furan-3-yl)-1-(4-(trifluoromethyl)benzyl)-1H-indazole]"
3,< 10,"O=C(Nc1cn(Cc2ccc(C(F)(F)F)cc2)c2ccccc12)c1ccoc1 [Compound 105, N-(1-(4-(trifluoromethyl)benzyl)-1H-indol-3-yl)furan-3-carboxamide]"
4,10,"FC(F)(F)c1ccc(Cn2nc(-c3cccc4ccccc34)c3ccccc32)cc1 [Compound 145, 3-(naphthalen-1-yl)-1-(4-(trifluoromethyl)benzyl)-1H-indazole]"
5,< 10,"Cc1ccc2c(NC(=O)c3ccoc3)nn(Cc3ccc(C(F)(F)F)cc3)c2n1 [Compound 132, N-(6-methyl-1-(4-(trifluoromethyl)benzyl)-1H-pyrazolo[3,4-b]pyridin-3-yl)furan-3-carboxamide]"
6,< 10,Cc1occc1C(=O)Nc1nn(Cc2ccc(C(F)(F)F)cc2)c2cc(C(F)(F)F)ccc12 [Compound 109]
7,10,"CC(=O)Nc1nn(Cc2ccc(C(F)(F)F)cc2)c2cncc(Cl)c12 [Compound 150, N-(1-(4-(trifluoromethyl)benzyl)-4-chloro-1H-pyrazolo(3,4-c)pyridyl)-3-acetamide]"
8,100,"Nc1nn(Cc2ccc(C(F)(F)F)cc2)c2cncc(Cl)c12 [Compound 137, 4-chloro-1-(4-(trifluoromethyl)benzyl)-1H-pyrazolo[3,4-c]pyridin-3-amine]"
9,< 10,"Nc1nn(Cc2ccc(C(F)(F)F)nc2)c2ccccc12 [Compound 91, 1-((6-(trifluoromethyl)pyridine-3-yl)methyl)-1H-indazol-3-amine]"
10,< 10,"Cc1occc1C(=O)Nc1nn(Cc2ccc(C(F)(F)F)cc2)c2cccc(Cl)c12 [Compound 119, N-(4-chloro-1-(4-(trifluoromethyl)benzyl)-1H-indazol-3-yl)-2-methylfuran-3-carboxamide]"
11,< 10,"Cc1occc1C(=O)Nc1nn(Cc2ccc(C(F)(F)F)cc2)c2c(C(F)(F)F)cccc12 [Compound 114, 2-methyl-N-(7-(trifluoromethyl)-1-(4-(trifluoromethyl)benzyl)-1H-indazol-3-yl)furan-3-carboxamide]"
12,< 10,"Cc1occc1C(=O)Nc1nn(Cc2ccc(C(F)(F)F)nc2)c2ccc(C#N)cc12 [Compound 100, N-(5-cyano-1-((6-(trifluoromethyl)pyridin-3 - yl)methyl)-1H-indazol-3-yl)-2-methylfuran-3-carboxamide]"
13,< 10,"Cc1ccc2c(N)nn(Cc3ccc(C(F)(F)F)cc3)c2n1 [Compound 131, 6-methyl-1-(4-(trifluoromethyl)benzyl)-1H-pyrazolo[3,4-b]pyridin-3-amine]"
14,< 10,"Cc1ccc2c(NC(=O)c3cccnn3)nn(Cc3ccc(C(F)(F)F)nc3)c2n1 [Compound 136, N-(6-methyl-1-((6-(trifluoromethyl)pyridin-3-yl)methyl)-1H-pyrazolo[3,4-b]pyridin-3-yl)pyridazine-3-carboxamide]"
